Measurements published in the OligoGym collection.
Several values for one entry are separate records, joined by “and”; a condition that tells them apart may be missing. Identical values can stand only once. After the bases stand the sugars from the 5' end (letter, count) and the backbone: PS all phosphorothioate, else s phosphorothioate and o phosphodiester by linkage. Methylation of C is not given here. e = 2'-O-(2-methoxyethyl) (MOE); k = constrained ethyl (cEt); d = 2'-deoxy (DNA)

Target: IRF4
Settings: ASO

Sequence	target mRNA inhibition (SK-MEL-28, 4 µM) [%]	target mRNA inhibition (MM.1R, 1 µM)	further results
AATGTTCAGCTTTTCC (sugars k3 d10 k3, PS)	63	–	–
AATTACTGCTTGAGGT (sugars k3 d10 k3, PS)	58	–	–
ACAAGCATAAAAGGTT (sugars k4 d8 k4, PS)	40	–	–
ACACACCACTATTCGA (sugars k3 d10 k3, PS)	35	–	–
ACACGGGAATTTCCAT (sugars k3 d10 k3, PS)	56	–	–
ACACTTTTAGAGAGGA (sugars kkddddddddddkeke, PS)	–	14%	–
ACACTTTTAGAGAGGA (sugars kkkdddddddddkeke, PS)	–	37%	–
ACAGAGGACTTCGGGA (sugars k3 d10 k3, PS)	-36	–	–
ACAGGACCTGGTCCAG (sugars k4 d8 k4, PS)	7	–	–
ACAGTGACTTGCATCC (sugars kkdddddddddkdkdk, PS)	–	18%	–
ACAGTGATCATCAATG (sugars k3 d10 k3, PS)	56	–	–
ACATAAAGGACCCCGC (sugars k3 d10 k3, PS)	28	–	–
ACATACCTACAAGCAG (sugars k3 d10 k3, PS)	45	–	–
ACCAAATTCCCGGAGG (sugars k3 d10 k3, PS)	7	–	–
ACCAGAATTGCAAGAG (sugars k3 d10 k3, PS)	60	–	–
ACCCAAGACTCCCAGA (sugars k3 d10 k3, PS)	45	–	–
ACCCAGAAGTACGAGC (sugars k3 d10 k3, PS)	21	–	–
ACCCAGCTAATGAGAG (sugars k3 d10 k3, PS)	35	–	–
ACCGATGCTTCAAGAC (sugars k3 d10 k3, PS)	–	31% and 56%	–
ACCGGTAGAGTGAGAT (sugars k3 d10 k3, PS)	–	16% and 2%	–
ACCTACACAGGCTAAT (sugars k3 d10 k3, PS)	–	-4%	–
ACCTACTCCATCACTT (sugars k3 d10 k3, PS)	-3	–	–
ACCTCAGTTTGTGAAG (sugars e1 k2 d9 k2 e2, PS)	–	2%	–
ACCTCAGTTTGTGAAG (sugars k3 d10 k3, PS)	39	–	–
ACCTCAGTTTGTGAAG (sugars kkdddddddddkekek, PS)	–	13%	–
ACCTCAGTTTGTGAAG (sugars kkkdddddddddkeke, PS)	–	8%	–

Sequence	target mRNA inhibition (SK-MEL-28, 4 µM) [%]	target mRNA inhibition (MM.1R, 1 µM)	further results
ACCTCAGTTTGTGAAG (sugars kkkddddddddkekek, PS)	–	-3%	–
ACCTGAATAGGAAGAT (sugars k3 d10 k3, PS)	31	–	–
ACCTTATGCTTGGCTC (sugars k4 d8 k4, PS)	30	–	–
ACCTTTACTTCATTCC (sugars k3 d10 k3, PS)	64	–	–
ACGAAAACAGCCGCCG (sugars k3 d10 k3, PS)	14	–	–
ACGAAACACAGTCTGC (sugars k3 d10 k3, PS)	52	–	–
ACGAAGATTCAAAAGG (sugars k3 d10 k3, PS)	36	–	–
ACGAGAACGCACGGAC (sugars k3 d10 k3, PS)	40	–	–
ACGAGGTTGCCGAGAT (sugars k3 d10 k3, PS)	–	62% and 41%	target mRNA inhibition (MM.1R, 0.0625 µM): -16%; target mRNA inhibition (MM.1R, 0.25 µM): 7%; target mRNA inhibition (MM.1R, 4 µM): 78%
ACGCAATCTTCTGCTG (sugars k3 d10 k3, PS)	52	–	–
ACGCAGTGCACCTGTG (sugars k3 d10 k3, PS)	-7	–	–
ACGCGCGGAGGACCTC (sugars k3 d10 k3, PS)	13	–	–
ACGCTTGCAGCTCTGA (sugars k3 d10 k3, PS)	48	–	–
ACGGAAGTTTACACTG (sugars k2 d9 e3 k2, PS)	–	15%	–
ACGGAAGTTTACACTG (sugars k3 d9 k3 e1, PS)	–	29%	–
ACGGAAGTTTACACTG (sugars kdddddddddkekeke, PS)	–	2%	–
ACGGAAGTTTACACTG (sugars kkkddddddddkekek, PS)	–	14%	–
ACGTGTGCTTGCCAAG (sugars k2 d9 e3 k2, PS)	–	44% and 43%	–
ACGTGTGCTTGCCAAG (sugars k3 d10 k3, PS)	–	54% and 55%	–
ACGTGTGCTTGCCAAG (sugars kddddddddddkekek, PS)	–	47% and 37%	–
ACGTGTGCTTGCCAAG (sugars kkdddddddddekeke, PS)	–	59% and 61%	–
ACTACCTGCAGCCAAG (sugars k3 d10 k3, PS)	–	4%	–
ACTATAATTGGCACGA (sugars k3 d10 k3, PS)	69	–	target mRNA inhibition (SK-MEL-28, 0.185 µM): 6%; target mRNA inhibition (SK-MEL-28, 5 µM): 72%; target mRNA inhibition (SK-MEL-28, 15 µM): 90%
ACTATGGTAGGAGTGT (sugars k3 d10 k3, PS)	25	–	–
ACTATTAAGAACTTGC (sugars k3 d10 k3, PS)	21	–	–
